Tests used:
Type in all cases: in vivo
[1] = tested on: wheat powdery mildew (Blumeria graminis); assay: Field test of frequency of attack on winter wheat; conditions: 125 g of active ingredient/ha per application (A and B), same conditions as Table 1
Method: (§1) The compounds were tested for their activity against wheat powdery mildew (Blumeda graminis).
(§2) Winter wheat (Appolo variety) was planted in France (department of Marne) in 1 m^2 plots, at the rate of 200 kg/ha (soil: coloured rendzina) at a depth of 3 cm. The compounds of the invention were applied to the wheat plants in two portions: Application A at the 1 cm ear stage and then Application B at the second visible node stage. Each of these applications was carried out by spraying an aqueous solution of the compounds at a dose of 125 g of active ingredient/ha.
(§3) During Application A, the intensity of attack by the fungus Blumeria graminis is estimated at 3% of the total foliar volume.
Under the same conditions, a test of frequency of attack was performed by evaluating the percentage of second leaf (from the ear) attacked by the fungus Blumeria graminis.

[2] = tested on: wheat powdery mildew (Blumeria graminis); assay: Field test of intensity of attack on winter wheat; conditions: 125 g of active ingredient/ha per application (A and B), 52 days after Application B, winter wheat field plots
Method: as §1, §2, §3
The tests of intensity of attack are carried out 52 days after Application B by evaluating the percentage of affected surface area of the second leaves (counted from the ear).

[3] = tested on: barley powdery mildew (Blumeria graminis f. sp. hordei); assay: Greenhouse preventive synergy test, barley powdery mildew
Method: (§4) This example gives an illustration of the synergistic effect obtained using the compounds according to the invention in the form of a mixture with compounds of the strobilurin type, in particular trifloxystrobin, triazole, in particular fluquinconazole. The compounds according to the invention were tested in a greenhouse under preventive conditions.
(§5) The combinations of active ingredients in Table 4 were evaluated.
(§6) The compounds and mixtures tested were sprayed on wheat plants:
(§7) volume for application equivalent to 250 l/ha.
(§8) On the day following the application, the wheat plants were inoculated with powdery mildew (Blumeria graminis f. sp. tritici), brown rust (Puccinia recondita), glume blotches (Septoria tritici and Septoria nodorum) and the barley plants with powdery mildew (Blumeria graminis f. sp. hordei). Once the diseases had developed, the evaluation was made by determining the extent of disease per pot.
(§9) The level of synergy was calculated using the Colby formula in order to calculate the theoretical efficacy and to compare it to the observed efficacy:
(§10) Theoretical efficacy of A+B=efficacy of A (%)+efficacy of B (%)−[efficacy of A (%)×efficacy of B (%)/100]

[4] = tested on: wheat powdery mildew (Blumeria graminis f. sp. tritici); assay: Greenhouse preventive synergy test, wheat powdery mildew
Method: as §4, §5, §6, §7, §8, §9, §10

[5] = tested on: powdery mildew (Blumeria graminis f. sp. tritici) strains resistant to strobilurin derivatives; assay: Greenhouse test on pathogenic strains resistant to strobilurin derivatives; conditions: wheat, 13 days of incubation
Method: This example gives an illustration of the biological efficacy of the compounds of formula (I) on pathogenic strains resistant to strobilurin derivatives.
The experiment was performed in a greenhouse.
Resistant strains were isolated and samples taken in 2001 in the north of Germany in the Bremen region in a place treated with pyraclostrobin and with picoxystrobin. These strains are characterized by their resistance to these strobilurin-type compounds. They were then kept in a controlled-environment chamber on wheat plants (Kanzler variety) treated with trifloxystrobin.
The tested compounds were sprayed on the wheat plants using solutions for application diluted in water to a volume equivalent to 250 l/ha. 24 h later, the plants were inoculated with powdery mildew (Blumeria graminis f. sp. tritici).
The extent of the disease was evaluated on each plant after 13 days of incubation.

[6] = tested on: wheat brown rust (Puccinia recondita); assay: Greenhouse preventive synergy test, wheat brown rust
Method: as §4, §5, §6, §7, §8, §9, §10

[7] = tested on: wheat glume blotch (Septoria tritici); assay: Greenhouse preventive synergy test, wheat glume blotch (Septoria tritici)
Method: as §4, §5, §6, §7, §8, §9, §10

[8] = tested on: wheat glume blotch (Septoria nodorum); assay: Greenhouse preventive synergy test, wheat glume blotch (Septoria nodorum)
Method: as §4, §5, §6, §7, §8, §9, §10

| SMILES | % of second leaf attacked [1] | % affected surface area per (second) leaf [2] | Observed efficacy ([3]; Table 11, 16 g/ha) | Observed efficacy ([4]; Table 10, 16 g/ha) | Percentage of leaves affected by powdery mildew ([5]; 31 g/ha) | Percentage of leaves affected by powdery mildew ([5]; 62 g/ha) | Observed efficacy ([3]; Table 6, 12 g/ha) | Observed efficacy ([4]; Table 5, 6 g/ha) | further results |
| --- | --- | --- | --- | --- | --- | --- | --- | --- | --- |
| Fc1ccc(Oc2ccnc3cc(Cl)cc(Cl)c23)cc1 [Compound B, quinoxyfen] | 73.3% | 4.91% |  |  |  |  |  |  |  |
| CCCOc1oc2ccc(I)cc2c(=O)c1CCC [Compound 2, 6-iodo-2-propoxy-3-propylbenzopyran-4-one] |  | 2.53% |  |  |  |  |  |  |  |
| CCCCOc1oc2ccc(I)cc2c(=O)c1CCC [Compound 3, 2-butoxy-6-iodo-3-propylbenzopyran-4-one] | 54.0% | 2.51% |  |  |  |  |  |  |  |
| CON=C(C(=O)OC)c1ccccc1CON=C(C)c1cccc(C(F)(F)F)c1 [Trifloxystrobin] |  |  | 0% | 30% | 100% | 100% |  |  | Observed efficacy ([3]; Table 11, 62 g/ha): 0%; Observed efficacy ([4]; Table 10, 31 g/ha): 40%; Observed efficacy ([4]; Table 10, 62 g/ha): 50%; Percentage of leaves affected by powdery mildew ([5]; 125 g/ha): 100%; Percentage of leaves affected by powdery mildew ([5]; 250 g/ha): 100% |
| O=c1c2cc(F)ccc2nc(-n2cncn2)n1-c1ccc(Cl)cc1Cl [fluquinconazole] |  |  |  |  |  |  | 25% | 0% | Observed efficacy ([6]; Table 7, 100 g/ha): 60%; Observed efficacy ([7]; Table 8, 100 g/ha): 60%; Observed efficacy ([3]; Table 6, 25 g/ha): 25%; Observed efficacy ([3]; Table 6, 62 g/ha): 75%; Observed efficacy ([4]; Table 5, 12 g/ha): 0%; Observed efficacy ([4]; Table 5, 31 g/ha): 0%; Observed efficacy ([8]; Table 9, 100 g/ha): 75% |
| CCCc1c(OCC)oc2ccc(I)cc2c1=O [Compound 1, 2-ethoxy-6-iodo-3-propylbenzopyran-4-one] | 28.0% | 0.56% | 50% | 50% | 0% | 0% | 50% | 25% | Observed efficacy ([6]; Table 7, 50 g/ha): 0%; Observed efficacy ([7]; Table 8, 50 g/ha): 0%; Observed efficacy ([3]; Table 11, 25 g/ha): 75%; Observed efficacy ([4]; Table 10, 6 g/ha): 25%; Observed efficacy ([4]; Table 10, 25 g/ha): 75%; Observed efficacy ([8]; Table 9, 50 g/ha): 0% |

Reference: patent US20040192672A1, “Iodobenzopyran-4-one derivatives having fungicidal activity” (priority 2001, published 2004)
